Experimental data from patent publication US20230263822A1, “MODULATION OF FACTOR 11 EXPRESSION” (Ionis Pharmaceuticals, Inc., priority 2008, published 2023).
Strand notation (5' to 3'): a small letter for the sugar, then the base; units joined by * are phosphorothioate-linked, units joined directly phosphodiester-linked; [ ] holds rarer units or linkages, { } end groups; capitals alone tell only the bases. e = 2'-O-(2-methoxyethyl) (MOE); [5mC] = 5-methylcytosine; d = 2'-deoxy (DNA)

Legend:
[1] = test system: human Factor 11 mRNA; test: Antisense inhibition of human Factor 11 in HepG2 cells by microwalk gapmers, lipofectin, 75 nM (Example 3); assay type: cell-based; settings: HepG2 cells, lipofectin, gapmers targeted to nucleobases 1275 to 1318 of SEQ ID NO: 1
Method in brief: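 HepG2 cells (10,000/well) were transfected via lipofectin with 75 nM 20-mer MOE gapmers (phosphorothioate, 5-methyl-C) for about 24 h. Factor 11 mRNA was measured by qRT-PCR, normalized to RIBOGREEN total RNA, and given as percent inhibition versus untreated cells.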

[2] = test system: human Factor 11 mRNA; test: Antisense inhibition of human Factor 11 in HepG2 cells, electroporation, 8,000 nM (Example 30); assay type: cell-based; settings: electroporation, 8,000 nM antisense oligonucleotide
Method in brief: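 HepG2 cells electroporated with 8,000 nM 5-10-5, 5-8-5 or 6-8-6 MOE gapmers (phosphorothioate, 5-methylcytidine), ~24 h. Factor 11 mRNA quantified by qRT-PCR, normalised to RIBOGREEN total RNA. Reported as percent inhibition versus untreated cells.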

[3] = test system: human Factor 11 mRNA; test: Dose-dependent inhibition of human Factor 11 in HepG2 cells, electroporation 123.46-10,000 nM (Example 31); assay type: cell-based
Method in brief: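 HepG2 cells were electroporated with antisense oligonucleotide at 123.46, 370.37, 1,111.11, 3,333.33 and 10,000 nM and harvested about 16 hours later. Factor 11 mRNA was quantified by qRT-PCR and normalised to total RNA (RIBOGREEN). Inhibition is expressed relative to untreated cells.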

[4] = design: species or system CD1 mice; settings: mouse, in vivo, sc, 50 mg/kg
Method: The concentration of the full-length oligonucleotide was measured. The method used is a modification of previously published methods (Leeds et al., 1996; Geary et al., 1999) which consist of a phenol-chloroform (liquid-liquid) extraction followed by a solid phase extraction. An internal standard (ISIS 355868, a 27-mer 2′-O-methoxyethyl modified phosphorothioate oligonucleotide, […], designated herein as SEQ ID NO: 270) was added prior to extraction. […] The results are presented in Table 85 expressed as μg/g liver tissue.

[5] = design: species or system Sprague-Dawley rats; settings: rat, in vivo, sc, 20 mg/kg
Method: The concentration of the full-length oligonucleotide as well as the total oligonucleotide concentration (including the degraded form) was measured. The method used is a modification of previously published methods (Leeds et al., 1996; Geary et al., 1999) which consist of a phenol-chloroform (liquid-liquid) extraction followed by a solid phase extraction. An internal standard (ISIS 355868, a 27-mer 2′-O-methoxyethyl modified phosphorothioate oligonucleotide, […], designated herein as SEQ ID NO: 270) was added prior to extraction. […] The results are presented in Tables 91 and 92, expressed as μg/g liver or kidney tissue. Half-lives were then calculated using WinNonlin software ([…]).

[6] = Viscosity of ISIS antisense oligonucleotides, micro-viscometer at 25 °C (Example 47); assay type: physicochemical; settings: for Concentration: concentration of the viscosity sample, UV reading at 260 nM at 85° C.; for Viscosity: in water, micro-viscometer at 25° C., at the concentration of the same line
Method: The viscosity of antisense oligonucleotides targeting human Factor 11 was measured with the aim of screening out antisense oligonucleotides which have a viscosity more than 40 cP at a concentration of 165-185 mg/mL.
ISIS oligonucleotides (32-35 mg) were weighed into a glass vial, 120 μL of water was added and the antisense oligonucleotide was dissolved into solution by heating the vial at 50° C. Part of (75 μL) the pre-heated sample was pipetted to a micro-viscometer (Cambridge). The temperature of the micro-viscometter was set to 25° C. and the viscosity of the sample was measured. Another part (20 μL) of the pre-heated sample was pipetted into 10 mL of water for UV reading at 260 nM at 85° C. (Cary UV instrument).

[7] = test system: human Factor 11 mRNA; test: Dose-dependent inhibition of human Factor 11 in HepG2 cells, electroporation 375-12,000 nM (Example 32); assay type: cell-based
Method: These gapmers were tested at various doses in HepG2 cells. Cells were plated at a density of 20,000 cells per well and transfected using electroporation with 375 nM, 750 nM, 1,500 nM, 3,000 nM, 6,000 nM and 12,000 nM concentrations of antisense oligonucleotide, as specified in Table 47. After a treatment period of approximately 16 hours, RNA was isolated from the cells and Factor 11 mRNA levels were measured by quantitative real-time PCR. Human Factor 11 primer probe set RTS 2966 was used to measure mRNA levels. Factor 11 mRNA levels were adjusted according to total RNA content, as measured by RIBOGREEN. Results are presented as percent inhibition of Factor 11, relative to untreated control cells.
ISIS 416850, ISIS 416858, ISIS 445522, and ISIS 445531 (see Table 45 above) were re-tested in vitro along with the microwalk gapmers under the same conditions described above.
The first two listed gapmers in Table 47 are the original gapmers (ISIS 416850 and ISIS 416858) from which the remaining gapmers were designed via microwalk and are designated by an asterisk.

[8] = test system: Factor 11 mRNA; test: Factor 11 mRNA in cynomolgus monkey liver, day 55 (Example 46); assay type: in vivo, cynomolgus monkeys; settings: 25 mg/kg subcutaneously, primer probe set LTS00301
Method: (§1) Groups, each consisting of two male and two female monkeys, were injected subcutaneously with 25 mg/kg of ISIS 416850, ISIS 449709, ISIS 445522, ISIS 449710, ISIS 449707, ISIS 449711, ISIS 449708, 416858, and ISIS 445531. Antisense oligonucleotide was administered to the monkeys at 25 mg/kg three times per week for week 1 and 25 mg/kg twice per week for weeks 2 to 8. A control group, consisting of two male and two female monkeys was injected subcutaneously with PBS according to the same dosing regimen. Body weights were taken 14 days and 7 days before the start of treatment and were then measured weekly throughout the treatment period. Blood samples were collected 14 days and 5 days before the start of treatment and subsequently several times during the dosing regimen for PT and aPTT measurements, and measurement of various hematologic factors. On day 55, the monkeys were euthanized by exsanguination while under deep anesthesia, and organs harvested for further analysis.
On day 55, RNA was extracted from liver tissue for real-time PCR analysis of Factor 11 using primer probe set LTS00301. Results are presented as percent inhibition of Factor 11, relative to PBS control.

[9] = test system: Factor 11 protein; test: Factor 11 protein in monkey plasma by sandwich ELISA (Example 46); assay type: in vivo, cynomolgus monkeys; settings: 25 mg/kg subcutaneously
Method: as §1
Plasma samples from all monkey groups taken on different days were analyzed by a sandwich-style ELISA assay (Affinity Biologicals Inc.) using an affinity-purified polyclonal anti-Factor 11 antibody as the capture antibody and a peroxidase-conjugated polyclonal anti-Factor 11 antibody as the detecting antibody. Monkey plasma was diluted 1:50 for the assay. Peroxidase activity was expressed by incubation with the substrate o-phenylenediamine. The color produced was quantified using a microplate reader at 490 nm and was considered to be proportional to the concentration of Factor 11 in the samples.
The results are presented in Table 147, expressed as percentage reduction relative to that of the PBS control.

[10] = electroporation, Factor 11 mRNA expression

Substance | % inhibition [1] | Percent inhibition of human Factor 11 mRNA levels [2] | Half-Life in the liver [4] | Half-life of ISIS oligonucleotides in the liver and kidney [5] | Concentration [6] | Viscosity [6] | further results
416851 (antisense GTGCACAGTTTCTGGCAGGC; 5-10-5 gapmer, further chemistry not given here) [compound 416851] | 88% | 89% | 23.8 days | 24 days | 187 mg/mL | 26 cP | Percent inhibition of Factor 11 mRNA at 123.47 nM ([3]; electroporation, 123.47 nM, approx. 16 hours, relative to untreated control cells): 13%; Percent inhibition of Factor 11 mRNA at 370.37 nM ([3]; electroporation, 370.37 nM, approx. 16 hours, relative to untreated control cells): 35%; Percent inhibition of Factor 11 mRNA at 1,111.11 nM ([3]; electroporation, 1,111.11 nM, approx. 16 hours, relative to untreated control cells): 36%; Percent inhibition of Factor 11 mRNA at 3,333.33 nM ([3]; electroporation, 3,333.33 nM, approx. 16 hours, relative to untreated control cells): 64%; Percent inhibition of Factor 11 mRNA at 10,000.0 nM ([3]; electroporation, 10,000.0 nM, approx. 16 hours, relative to untreated control cells): 72%; IC50 [3, 10]: 1.5 µM
416863 (antisense CAGCGGACGGCATTGGTGCA; 5-10-5 gapmer, further chemistry not given here) [compound 416863] | 83% | 86% | 19.8 days | 20 days | 165 mg/mL | 9 cP | 
416867 (antisense ACTGGCAGCGGACGGCATTG; 5-10-5 gapmer, further chemistry not given here) [compound 416867] | 83% | 85% | 18.9 days | 19 days | 168 mg/mL | 8 cP | 
416848 (antisense CACAGTTTCTGGCAGGCCTC; 5-10-5 gapmer, further chemistry not given here) [compound 416848] | 86% | 87% | 23.5 days | 24 days | 158 mg/mL | 6 cP | 
416866 (antisense CTGGCAGCGGACGGCATTGG; 5-10-5 gapmer, further chemistry not given here) [compound 416866] | 88% | 84% | 16.0 days | 16 days | 166 mg/mL | >100 cP | 
416859 (antisense GACGGCATTGGTGCACAGTT; 5-10-5 gapmer, further chemistry not given here) [compound 416859] | 90% | 85% | 19.0 days | 19 days | 161 mg/mL | 10 cP | 
416852 (antisense TGGTGCACAGTTTCTGGCAG; 5-10-5 gapmer, further chemistry not given here) [compound 416852] | 84% | 87% | 28.4 days | 28 days | 169 mg/mL | 29 cP | 
449710 (antisense e[5mC]*eA*e[5mC]*dA*dG*dT*dT*dT*d[5mC]*dT*dG*dG*d[5mC]*eA*eG*eG) [compound 449710] |  |  |  |  | 186 mg/mL | 7 cP | Percent inhibition of Factor 11 mRNA at 375 nM ([7]; electroporation, 375 nM, approx. 16 hours, relative to untreated control cells): 2%; Percent inhibition of Factor 11 mRNA at 750 nM ([7]; electroporation, 750 nM, approx. 16 hours, relative to untreated control cells): 21%; Percent inhibition of Factor 11 mRNA at 1,500 nM ([7]; electroporation, 1,500 nM, approx. 16 hours, relative to untreated control cells): 52%; Percent inhibition of Factor 11 mRNA at 3,000 nM ([7]; electroporation, 3,000 nM, approx. 16 hours, relative to untreated control cells): 70%; Percent inhibition of Factor 11 mRNA at 6,000 nM ([7]; electroporation, 6,000 nM, approx. 16 hours, relative to untreated control cells): 82%; Percent inhibition of Factor 11 mRNA at 12,000 nM ([7]; electroporation, 12,000 nM, approx. 16 hours, relative to untreated control cells): 87%; IC50 [7, 10]: 1.59 µM; % inhibition of Factor 11 mRNA in liver relative to the PBS control [8]: 52%; Inhibition of Factor 11 protein relative to the PBS control (percentage reduction) ([9]; Day 10, plasma): 10%; Inhibition of Factor 11 protein relative to the PBS control (percentage reduction) ([9]; Day 17, plasma): 14%; Inhibition of Factor 11 protein relative to the PBS control (percentage reduction) ([9]; Day 24, plasma): 17%; Inhibition of Factor 11 protein relative to the PBS control (percentage reduction) ([9]; Day 31, plasma): 25%; Inhibition of Factor 11 protein relative to the PBS control (percentage reduction) ([9]; Day 38, plasma): 20%; Inhibition of Factor 11 protein relative to the PBS control (percentage reduction) ([9]; Day 45, plasma): 23%; Inhibition of Factor 11 protein relative to the PBS control (percentage reduction) ([9]; Day 52, plasma): 4%; Inhibition of Factor 11 protein relative to the PBS control (percentage reduction) ([9]; Day 55, plasma): 24%; Inhibition of Factor 11 protein relative to the PBS control (percentage reduction) ([9]; Day −5, plasma): 0%; Inhibition of Factor 11 protein relative to the PBS control (percentage reduction) ([9]; Day −14, plasma): 1%
